Data as given in the supplement of paper PMC10307832.

compound: O=c1ncccn1[C@@H]1O[C@H](CO)[C@@H](O)[C@H]1O [Zebularine] + CC(=O)Nc1cccc(-n2c(=O)n(C3CC3)c(=O)c3c(Nc4ccc(I)cc4F)n(C)c(=O)c(C)c32)c1 [Trametinib] (partner 0.02 µM); assay: relative viability (nuclei count vs DMSO), 5 days (fraction); higher = more cells survive; conditions: first compound 1 µM
Outline: (§1)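 Lung cancer cell lines were pin-tool dosed in 1536-well plates on the day after seeding, with either a lone drug or a fixed anchor-drug dose plus five library-drug doses (not always all listed) in √10 steps. Nuclei were counted on 4× images after 5 days. Relative viability is the ratio of treated-well to vehicle-well nuclei counts, with each value a median of duplicate plates.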

| Cell Line | relative viability |
| --- | --- |
| LOU-NH91 | 0.773 |
| NCI-H2405 | 0.602 |
| HOP-62 | 0.456 |
| HCC-44 | 1.04 |
| LU99A | 0.604 |
| BEN | 0.996 |
| HARA | 1.03 |
| NCI-H322M | 0.489 |
| LCLC-97TM1 | 0.223 |
| NCI-H2009 | 0.294 |
| A-427 | 0.763 |
| NCI-H441 | 0.485 |
| NCI-H661 | 0.601 |
| NCI-H1734 | 0.738 |
| NCI-H460 | 0.24 |
| NCI-H2347 | 0.294 |
| SK-LU-1 | 0.52 |
| NCI-H1395 | 1.15 |
| 201T | 0.793 |
| NCI-H1915 | 0.315 |
| HCC-827 | 0.535 |
| LXF-289 | 0.796 |
| NCI-H23 | 0.486 |
| NCI-H647 | 0.53 |
| CAL-12T | 0.381 |
| NCI-H1651 | 0.875 |
| EPLC-272H | 0.348 |

same assay, conditions: first compound 3.162 µM

| Cell Line | relative viability |
| --- | --- |
| LOU-NH91 | 0.814 |
| NCI-H2405 | 0.602 |
| HOP-62 | 0.435 |
| HCC-44 | 1.11 |
| LU99A | 0.503 |
| BEN | 0.994 |
| HARA | 0.458 |
| NCI-H322M | 0.515 |
| LCLC-97TM1 | 0.209 |
| NCI-H2009 | 0.276 |
| A-427 | 0.746 |
| NCI-H441 | 0.416 |
| NCI-H661 | 0.596 |
| NCI-H1734 | 0.641 |
| NCI-H460 | 0.182 |
| NCI-H2347 | 0.299 |
| SK-LU-1 | 0.485 |
| NCI-H1395 | 1.05 |
| 201T | 0.767 |
| NCI-H1915 | 0.31 |
| HCC-827 | 0.574 |
| LXF-289 | 0.731 |
| NCI-H23 | 0.443 |
| NCI-H647 | 0.508 |
| CAL-12T | 0.338 |
| NCI-H1651 | 0.865 |

same assay, conditions: first compound 10 µM

| Cell Line | relative viability |
| --- | --- |
| LOU-NH91 | 0.718 |
| NCI-H2405 | 0.516 |
| HOP-62 | 0.282 |
| HCC-44 | 0.968 |
| LU99A | 0.502 |
| BEN | 0.781 |
| HARA | 0.48 |
| NCI-H322M | 0.481 |
| LCLC-97TM1 | 0.128 |
| NCI-H2009 | 0.274 |
| A-427 | 0.698 |
| NCI-H441 | 0.316 |
| NCI-H661 | 0.457 |
| NCI-H1734 | 0.527 |
| NCI-H460 | 0.0901 |
| NCI-H2347 | 0.237 |
| SK-LU-1 | 0.412 |
| NCI-H1395 | 0.966 |
| 201T | 0.647 |
| NCI-H1915 | 0.322 |
| HCC-827 | 0.492 |
| LXF-289 | 0.651 |
| NCI-H647 | 0.184 |
| CAL-12T | 0.309 |
| NCI-H1651 | 0.82 |
| EPLC-272H | 0.258 |

same assay, conditions: first compound 31.62 µM

| Cell Line | relative viability |
| --- | --- |
| LOU-NH91 | 0.843 |
| NCI-H2405 | 0.683 |
| HOP-62 | 0.244 |
| HCC-44 | 1.1 |
| LU99A | 0.329 |
| BEN | 0.491 |
| HARA | 0.688 |
| NCI-H322M | 0.551 |
| LCLC-97TM1 | 0.188 |
| NCI-H2009 | 0.243 |
| A-427 | 0.448 |
| NCI-H441 | 0.315 |
| NCI-H661 | 0.651 |
| NCI-H1734 | 0.54 |
| NCI-H460 | 0.196 |
| NCI-H2347 | 0.312 |
| SK-LU-1 | 0.446 |
| NCI-H1395 | 0.767 |
| 201T | 0.741 |
| NCI-H1915 | 0.319 |
| HCC-827 | 0.546 |
| LXF-289 | 0.488 |
| NCI-H23 | 0.405 |
| NCI-H647 | 0.116 |
| CAL-12T | 0.328 |
| NCI-H1651 | 0.772 |
| EPLC-272H | 0.223 |

same assay, conditions: first compound 100 µM

| Cell Line | relative viability |
| --- | --- |
| LOU-NH91 | 0.65 |
| NCI-H2405 | 0.532 |
| HOP-62 | 0.191 |
| HCC-44 | 0.668 |
| LU99A | 0.195 |
| BEN | 0.49 |
| HARA | 0.651 |
| NCI-H322M | 0.509 |
| LCLC-97TM1 | 0.174 |
| NCI-H2009 | 0.197 |
| A-427 | 0.267 |
| NCI-H441 | 0.213 |
| NCI-H661 | 0.639 |
| NCI-H1734 | 0.275 |
| NCI-H460 | 0.0781 |
| NCI-H2347 | 0.235 |
| SK-LU-1 | 0.371 |
| NCI-H1395 | 0.62 |
| 201T | 0.719 |
| NCI-H1915 | 0.287 |
| HCC-827 | 0.404 |
| LXF-289 | 0.296 |
| NCI-H23 | 0.412 |
| NCI-H647 | 0.112 |
| CAL-12T | 0.319 |
| NCI-H1651 | 0.35 |
| EPLC-272H | 0.352 |

compound: CC(C)CCN1c2nc(Nc3cc(F)c(O)c(F)c3)ncc2N(C)C(=O)C1C [BI-D1870] + Cc1nc(NC(=O)N2CCC[C@H]2C(N)=O)sc1-c1ccnc(C(C)(C)C(F)(F)F)c1 [Alpelisib] (partner 2 µM); assay: as above; conditions: first compound 0.04 µM
Outline: as §1

| Cell Line | relative viability |
| --- | --- |
| LOU-NH91 | 0.811 |
| NCI-H2405 | 0.976 |
| HOP-62 | 1.21 |
| HCC-44 | 0.911 |
| LU99A | 0.621 |
| BEN | 1.1 |
| HARA | 0.981 |
| NCI-H322M | 0.887 |
| LCLC-97TM1 | 0.254 |
| NCI-H2009 | 1.28 |
| A-427 | 1.13 |
| NCI-H441 | 0.915 |
| NCI-H661 | 0.516 |
| NCI-H1734 | 0.778 |
| NCI-H460 | 0.613 |
| NCI-H2347 | 1.07 |
| SK-LU-1 | 1.04 |
| NCI-H1395 | 1.56 |
| 201T | 1 |
| NCI-H1915 | 1.03 |
| HCC-827 | 0.991 |
| LXF-289 | 1.12 |
| NCI-H23 | 0.779 |
| NCI-H647 | 1.1 |
| CAL-12T | 1.53 |
| NCI-H1651 | 1.04 |
| EPLC-272H | 0.967 |

same assay, conditions: first compound 0.1265 µM

| Cell Line | relative viability |
| --- | --- |
| LOU-NH91 | 0.796 |
| NCI-H2405 | 0.766 |
| HOP-62 | 1 |
| HCC-44 | 0.817 |
| LU99A | 0.492 |
| BEN | 0.914 |
| HARA | 0.75 |
| NCI-H322M | 0.79 |
| LCLC-97TM1 | 0.218 |
| NCI-H2009 | 1.13 |
| A-427 | 1.02 |
| NCI-H441 | 0.675 |
| NCI-H661 | 0.692 |
| NCI-H1734 | 0.619 |
| NCI-H460 | 0.368 |
| NCI-H2347 | 0.984 |
| SK-LU-1 | 0.879 |
| NCI-H1395 | 1.04 |
| 201T | 0.935 |
| NCI-H1915 | 1.07 |
| HCC-827 | 0.959 |
| LXF-289 | 0.983 |
| NCI-H23 | 0.508 |
| NCI-H647 | 0.985 |
| CAL-12T | 1.14 |
| NCI-H1651 | 0.939 |
| EPLC-272H | 0.878 |

same assay, conditions: first compound 0.4 µM

| Cell Line | relative viability |
| --- | --- |
| LOU-NH91 | 0.753 |
| NCI-H2405 | 0.769 |
| HOP-62 | 1.02 |
| HCC-44 | 0.846 |
| LU99A | 0.482 |
| BEN | 1 |
| HARA | 0.842 |
| NCI-H322M | 0.741 |
| LCLC-97TM1 | 0.219 |
| NCI-H2009 | 1.21 |
| A-427 | 0.992 |
| NCI-H441 | 0.955 |
| NCI-H661 | 0.427 |
| NCI-H1734 | 0.683 |
| NCI-H460 | 0.443 |
| NCI-H2347 | 0.816 |
| SK-LU-1 | 0.807 |
| NCI-H1395 | 1.11 |
| 201T | 0.976 |
| NCI-H1915 | 1.03 |
| HCC-827 | 0.916 |
| LXF-289 | 1 |
| NCI-H23 | 0.614 |
| NCI-H647 | 1.16 |
| CAL-12T | 1.11 |
| NCI-H1651 | 1 |
| EPLC-272H | 0.836 |

same assay, conditions: first compound 1.265 µM

| Cell Line | relative viability |
| --- | --- |
| LOU-NH91 | 0.735 |
| NCI-H2405 | 0.789 |
| HOP-62 | 1.05 |
| HCC-44 | 0.695 |
| LU99A | 0.565 |
| BEN | 1.13 |
| HARA | 1.02 |
| NCI-H322M | 0.891 |
| LCLC-97TM1 | 0.276 |
| NCI-H2009 | 0.995 |
| A-427 | 1.12 |
| NCI-H441 | 0.572 |
| NCI-H661 | 0.599 |
| NCI-H1734 | 0.75 |
| NCI-H460 | 0.347 |
| NCI-H2347 | 1.14 |
| SK-LU-1 | 0.653 |
| NCI-H1395 | 1.05 |
| 201T | 1 |
| NCI-H1915 | 1.06 |
| HCC-827 | 0.965 |
| LXF-289 | 1.02 |
| NCI-H23 | 0.78 |
| NCI-H647 | 1.07 |
| CAL-12T | 1.05 |
| NCI-H1651 | 0.942 |
| EPLC-272H | 1.01 |

same assay, conditions: first compound 4 µM

| Cell Line | relative viability |
| --- | --- |
| LOU-NH91 | 0.605 |
| NCI-H2405 | 0.705 |
| HOP-62 | 1.2 |
| HCC-44 | 0.595 |
| LU99A | 0.489 |
| BEN | 0.884 |
| HARA | 0.747 |
| NCI-H322M | 0.765 |
| LCLC-97TM1 | 0.188 |
| NCI-H2009 | 0.885 |
| A-427 | 1.16 |
| NCI-H441 | 0.434 |
| NCI-H661 | 0.65 |
| NCI-H1734 | 0.597 |
| NCI-H460 | 0.0382 |
| NCI-H2347 | 0.848 |
| SK-LU-1 | 0.237 |
| NCI-H1395 | 1.08 |
| 201T | 0.951 |
| NCI-H1915 | 1 |
| HCC-827 | 0.907 |
| LXF-289 | 0.899 |
| NCI-H23 | 0.664 |
| NCI-H647 | 0.896 |
